# PubChem BioAssay (NCI)
# Several values for one entry are separate records, joined by “and”; a condition that tells them apart may be missing. Equal values may be shown once.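 Method: 48-hour compound exposure of cells in 96-well plates, five concentrations, linear interpolation of endpoints. Abbreviation: GI50, concentration required for 50% inhibition of growth. At the TGI there is no net growth.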
# Tests used:
# Assay in all cases: DTP human tumour cell line panel, 48 h
# HT29 colon = test system: HT29 colon
# SF-268 CNS = test system: SF-268 CNS
# COLO 205 colon = test system: COLO 205 colon
# K-562 leukemia = test system: K-562 leukemia
# RPMI-8226 leukemia = test system: RPMI-8226 leukemia
# UACC-257 melanoma = test system: UACC-257 melanoma
# HCT-15 colon = test system: HCT-15 colon
# OVCAR-5 ovarian = test system: OVCAR-5 ovarian
# HS 578T breast = test system: HS 578T breast
# LOX IMVI melanoma = test system: LOX IMVI melanoma
SMILES,GI50 (HT29 colon) [µM],TGI (HT29 colon),GI50 (SF-268 CNS) [µM],TGI (SF-268 CNS),GI50 (COLO 205 colon) [µM],TGI (COLO 205 colon) [µM],GI50 (K-562 leukemia) [µM],TGI (K-562 leukemia) [µM],GI50 (RPMI-8226 leukemia) [µM],TGI (RPMI-8226 leukemia),GI50 (UACC-257 melanoma) [µM],TGI (UACC-257 melanoma),GI50 (HCT-15 colon) [µM],TGI (HCT-15 colon),GI50 (OVCAR-5 ovarian) [µM],TGI (OVCAR-5 ovarian),GI50 (HS 578T breast) [µM],TGI (HS 578T breast),GI50 (LOX IMVI melanoma) [µM],TGI (LOX IMVI melanoma)
CC(CN)[C@@H]1CC[C@]2(CO)CC[C@]3(C)[C@H](CC[C@@H]4[C@@]5(C)CCC(NCCO)C(C)(C)[C@@H]5CC[C@]43C)[C@@H]12 (stereo not given in full),1.62,3.26 µM,1.75,3.94 µM,1.73,3.55,1.54,3.35,1.89,4.5 µM,1.73,3.15 µM,1.98,3.97 µM,2.11,5 µM,1.87,4.59 µM,1.64,3.12 µM
Nc1nc2ccc([C@@H]3Nc4ccc5[nH]ncc5c4[C@H]4[C@H]5CCC(C5)[C@H]43)cc2s1,0.435,11 µM,1.49,4.52 µM,1.08,2.92,0.328,5.87,1.39,5.3 µM,2.12,5.46 µM,0.505,2.64 µM,1.83,4.41 µM,1.39,4.4 µM,0.935,2.54 µM
COC(=O)c1ccc(=O)c2nc3/c(=C/O)c(O)cc(=O)c3[nH]c12,1.03,> 39.8 µM and 28.5 µM,1.2,24.9 µM and 18.6 µM,6.49,> 100,0.372,> 100,0.393,30.7 µM and 3.93 µM,2.74,16.1 µM and 27.8 µM,0.42,21.4 µM and 14.5 µM,3.38,13 µM and 22.4 µM,0.301,23 µM and 20.1 µM,0.662,20.3 µM and 15.4 µM
Cn1ccc(=Nc2ccc(NC(=O)c3ccc(N=c4ccn(C)c5ccc([N+](=O)[O-])cc45)cc3)cc2)cc1,7.54,> 100 µM,4.37,98.2 µM,3.94,> 100,6.75,> 100,3.54,> 100 µM,12.5,74.5 µM,> 100,> 100 µM,> 100,> 100 µM,16.4,92.6 µM,5.37,> 100 µM
O=c1cccc(C#Cc2ccccc2)o1,14.6,> 100 µM,5.34,> 96.7 µM,12.6,> 44.9,40.4,> 100,0.698,12.1 µM,7.74,22.4 µM,6.9,23.6 µM,6.35,16.1 µM,6.5,25.9 µM,7.89,30.1 µM
COc1ccc(-c2cnc(-c3ccc(F)cc3)[nH]2)cc1,3.19,> 32.8 µM,2.62,8 µM,2.2,7.59,10.3,> 55.1,2.39,> 27.2 µM,5.17,17.2 µM,5.98,13.9 µM,12.6,43.9 µM,2.14,11.2 µM,5.49,10.8 µM
O=C(Oc1ccc([N+](=O)[O-])cc1)N1CCN(Cc2cccc(Oc3ccccc3)c2)CC1,40.6,> 100 µM,> 100,> 100 µM,> 83.5,> 100,34.1,> 100,13.1,> 100 µM,> 76.9,> 100 µM,> 100,> 100 µM,> 100,> 100 µM,> 100,> 100 µM,> 82.6,> 100 µM
COc1ccc2cc(C(=O)/C=C/c3cccc(Cl)c3Cl)ccc2c1,7.33,> 64.2 µM,18.8,> 92.2 µM,24.7,> 71.6,4.93,> 100,5.56,> 46.8 µM,39.6,> 100 µM,2.13,> 34.2 µM,36.9,95.2 µM,50.5,> 100 µM,0.651,> 24.9 µM
CCOC(=O)/C=C1\SC(=Nc2ccc(C#N)cc2)N(CCN2C(=O)/C(=C/C(=O)OCC)SC2=Nc2ccc(C#N)cc2)C1=O,1.11,10.1 µM,1.94,16.1 µM,3.05,11.5,0.786,> 100,0.415,2.99 µM,14,36.4 µM,0.408,2.53 µM,6.75,30.8 µM,3.84,> 70.5 µM,0.585,1.28 µM
O=S(=O)(NC(=S)Nc1ccccc1)c1ccc(N2N=C3c4ccccc4CC3C2c2cccs2)cc1 (stereo not given),36.2,> 100 µM,30.7,> 100 µM,41.9,> 100,31.3,56.5,30.3,97.6 µM,29.1,79.9 µM,22.6,63.5 µM,17.9,41.1 µM,20.9,68 µM,24.4,70.7 µM
